Measurements taken from US9302999B2, “Substituted triazoles as herbicides” (E. I. DU PONT DE NEMOURS AND COMPANY, priority 2012, dated 2016).

Legend:
Assay type in all cases: in vivo
[1] = tested on: pigweed (Amaranthus retroflexus); assay: Test D pre-/postemergence: pigweed
In short: (§1)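 Species were sown in silt loam and sprayed preemergence, or grown in peat/vermiculite medium and sprayed postemergence at the 1- to 4-leaf stage (2–18 cm), with compounds in a surfactant-containing solvent. Injury was visually rated against untreated controls after 14–21 days, on a 0 (no effect) to 100 (complete control) scale.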

[2] = tested on: lambsquarters (Chenopodium album); assay: Test D pre-/postemergence: lambsquarters
In short: as §1

[3] = tested on: deadnettle (henbit deadnettle, Lamium amplexicaule); assay: Test C postemergence: deadnettle
In short: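 Crop and weed plants were grown in peat-vermiculite medium and treated postemergence at the 1- to 4-leaf stage (2-18 cm tall). After 13-15 days in a greenhouse, each species was rated visually against untreated controls on a 0-100 scale (0 no effect, 100 complete control).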

[4] = tested on: canarygrass (Phalaris minor); assay: Test C postemergence: canarygrass
From the text: (§2) At the same time, plants selected from these crop and weed species and also barley (winter barley, Hordeum vulgare), canarygrass (Phalaris minor), chickweed (common chickweed, Stellaria media) windgrass (Apera spica-venti) and deadnettle (henbit deadnettle, Lamium amplexicaule) were planted in pots containing Redi-Earth® planting medium (Scotts Company, 14111 Scottslawn Road, Marysville, Ohio 43041) comprising spaghnum peat moss, vermiculite, wetting agent and starter nutrients and treated with postemergence applications of test chemicals formulated in the same manner. Plants ranged in height from 2 to 18 cm (1- to 4-leaf stage) for postemergence treatments.
(§3) Treated plants and controls were maintained in a greenhouse for 13 to 15 days, after which time all species were compared to controls and visually evaluated. Plant response ratings, summarized in Table C, are based on a scale of 0 to 100 where 0 is no effect and 100 is complete control. A dash (-) response means no test result.

[5] = tested on: field poppy (Papaver rhoeas); assay: Test D pre-/postemergence: field poppy
In short: as §1

[6] = tested on: cocklebur (common cocklebur, Xanthium strumarium); assay: Test C pre-/postemergence: cocklebur; settings: Postemergence
From the text: Seeds of plant species selected from blackgrass (Alopecurus myosuroides), bromegrass, downy (downy bromegrass, Bromus tectorum), foxtail, green (green foxtail, Setaria viridis), ryegrass, Italian (Italian ryegrass, Lolium multiflorum), winter wheat (Triticum aestivum), wild oat (Avena fatua), galium (catchweed bedstraw, Galium aparine), bermudagrass (Cynodon dactylon), surinam grass (Brachiaria decumbens), cocklebur (common cocklebur, Xanthium strumarium), corn (Zea mays), large crabgrass (Digitaria sanguinalis), woolly cupgrass (Eriochloa villosa), foxtail, giant (giant foxtail, Setaria faberii), goosegrass (Eleusine indica), johnsongrass (Sorghum halepense), kochia (Kochia scoparia), lambsquarters (Chenopodium album), morningglory (Ipomoea coccinea), nightshade (eastern black nightshade, Solanum ptycanthum), nutsedge, yellow (yellow nutsedge, Cyperus esculentus), pigweed (Amaranthus retroflexus), ragweed (common ragweed, Ambrosia elation), soybean (Glycine max), common (oilseed) sunflower (Helianthus annuus), Russian thistle (Salsola kali) and velvetleaf (Abutilon theophrasti) were planted into a blend of loam soil and sand and treated preemergence with test chemicals formulated in a non-phytotoxic solvent mixture which included a surfactant.
as §2, §3

kochia (Kochia scoparia) = assay: Test D pre-/postemergence: kochia
In short: as §1

[7] = tested on: galium (catchweed bedstraw, Galium aparine); assay: Test D pre-/postemergence: galium
In short: as §1

[8] = tested on: speedwell (bird's-eye speedwell, Veronica persica); assay: Test D pre-/postemergence: speedwell
From the text: Seeds of plant species selected from bluegrass (annual bluegrass, Poa annua), blackgrass (Alopecurus myosuroides), canarygrass (Phalaris minor), chickweed (common chickweed, Stellaria media), galium (catchweed bedstraw, Galium aparine), bromegrass, downy (downy bromegrass, Bromus tectorum), field poppy (Papaver rhoeas), field violet (Viola arvensis), foxtail, green (green foxtail, Setaria viridis), deadnettle (henbit deadnettle, Lamium amplexicaule), ryegrass, Italian (Italian ryegrass, Lolium multiflorum), kochia (Kochia scoparia), lambsquarters (Chenopodium album), oilseed rape (Brassica napus), pigweed (Amaranthus retroflexus), Russian thistle (Salsola iberica), chamomile (scentless chamomile, Matricaria inodora), speedwell (bird's-eye speedwell, Veronica persica), barley, spring (spring barley, Hordeum vulgare), wheat, spring (spring wheat, Triticum aestivum), buckwheat, wild (wild buckwheat, Polygonum convolvulus), mustard, wild (wild mustard, Sinapis arvensis), oat, wild (wild oat, Avena fatua), radish, wild (wild radish, Raphanus raphanistrum), windgrass (Apera spica-venti), barley, winter (winter barley, Hordeum vulgare), and wheat, winter (winter wheat, Triticum aestivum) were planted into a silt loam soil and treated preemergence with test chemicals formulated in a non-phytotoxic solvent mixture which included a surfactant. At the same time, these same crop and weed species were planted in pots containing the planting medium comprising spaghnum peat moss, vermiculite, wetting agent and starter nutrients and treated with postemergence applications of the test chemicals formulated in the same manner. Plants ranged in height from 2 to 18 cm (1- to 4-leaf stage).
as §3, with “controlled growth environment” for “greenhouse”, “14” for “13”, “21 days” for “15 days,”, “D,” for “C,”

[9] = tested on: mustard, wild (wild mustard, Sinapis arvensis); assay: Test D pre-/postemergence: mustard, wild
In short: as §1

[10] = Postemergence, 31 g ai/ha, scale 0 to 100 (0 no effect, 100 complete control)
[11] = Postemergence, 62 g ai/ha, scale 0 to 100 (0 no effect, 100 complete control)
[12] = Postemergence, 125 g ai/ha, scale 0 to 100, 0 no effect, 100 complete control
[13] = Postemergence, 250 g ai/ha, scale 0 to 100 (0 no effect, 100 complete control)
[14] = Postemergence, 16 g ai/ha, scale 0 to 100
[15] = Preemergence, 16 g ai/ha, scale 0 to 100 (0 no effect, 100 complete control)
[16] = Preemergence, 31 g ai/ha, scale 0 to 100 (0 no effect, 100 complete control)
[17] = Preemergence, 62 g ai/ha, scale 0 to 100
[18] = Preemergence, 125 g ai/ha, scale 0 to 100
[19] = Preemergence, 250 g ai/ha, scale 0 to 100
[20] = 31 g ai/ha, scale 0 to 100 (0 no effect, 100 complete control)
[21] = 62 g ai/ha, scale 0 to 100 (0 no effect, 100 complete control)
[22] = 125 g ai/ha, scale 0 to 100, 0 no effect, 100 complete control

Compound: Cc1nn(-c2ccc(F)cc2)nc1Cc1ccnc(C(F)(F)F)c1 [Compound 16, 4-[[2-(4-fluorophenyl)-5-methyl-2H-1,2,3-triazol-4-yl]methyl]-2-(trifluoromethyl)pyridine]
- Plant response rating: Pigweed [1, 10]: 70
- Plant response rating: Pigweed [1, 11]: 80
- Plant response rating: Pigweed [1, 12]: 90
- Plant response rating: Pigweed [1, 13]: 100
- Plant response rating, Pigweed [1, 14]: 50
- Plant response rating, Pigweed [1, 15]: 25
- Plant response rating, Pigweed [1, 16]: 80
- Plant response rating, Pigweed [1, 17]: 80
- Plant response rating, Pigweed [1, 18]: 90
- Plant response rating, Pigweed [1, 19]: 100
- Plant response rating: Lambsquarters [2, 10]: 80
- Plant response rating: Lambsquarters [2, 11]: 100
- Plant response rating: Lambsquarters [2, 12]: 100
- Plant response rating: Lambsquarters [2, 13]: 100
- Plant response rating, Lambsquarters [2, 14]: 75
- Plant response rating, Lambsquarters [2, 15]: 30
- Plant response rating, Lambsquarters [2, 16]: 50
- Plant response rating, Lambsquarters [2, 17]: 80
- Plant response rating, Lambsquarters [2, 18]: 95
- Plant response rating, Lambsquarters [2, 19]: 100
- Plant response rating, Deadnettle [3, 20]: 50
- Plant response rating, Deadnettle [3, 21]: 98
- Plant response rating, Deadnettle [3, 22]: 98
- Plant response rating, Deadnettle ([3]; 250 g ai/ha, scale 0 to 100): 100
- Plant response rating, Canarygrass [4, 20]: 20
- Plant response rating, Canarygrass [4, 21]: 60
- Plant response rating, Canarygrass [4, 22]: 60
- Plant response rating, Canarygrass ([4]; 250 g ai/ha, scale 0 to 100): 90
- Plant response rating: Field Poppy [5, 10]: 100
- Plant response rating: Field Poppy [5, 11]: 100
- Plant response rating: Field Poppy [5, 12]: 100
- Plant response rating: Field Poppy [5, 13]: 100
- Plant response rating, Field Poppy [5, 14]: 0
- Plant response rating, Field Poppy [5, 15]: 100
- Plant response rating, Field Poppy [5, 16]: 100
- Plant response rating, Field Poppy [5, 17]: 100
- Plant response rating, Field Poppy [5, 18]: 100
- Plant response rating, Field Poppy [5, 19]: 100
- Plant response rating, Cocklebur [6, 20]: 35
- Plant response rating, Cocklebur [6, 21]: 45
- Plant response rating, Cocklebur [6, 22]: 45
- Plant response rating, Cocklebur ([6]; 250 g ai/ha, scale 0 to 100): 45
- Plant response rating: Kochia (kochia (Kochia scoparia); [10]): 90
- Plant response rating: Kochia (kochia (Kochia scoparia); [11]): 95
- Plant response rating: Kochia (kochia (Kochia scoparia); [12]): 75
- Plant response rating: Kochia (kochia (Kochia scoparia); [13]): 95
- Plant response rating, Kochia (kochia (Kochia scoparia); [14]): 85
- Plant response rating, Kochia (kochia (Kochia scoparia); [15]): 30
- Plant response rating, Kochia (kochia (Kochia scoparia); [16]): 30
- Plant response rating, Kochia (kochia (Kochia scoparia); [17]): 90
- Plant response rating, Kochia (kochia (Kochia scoparia); [18]): 90
- Plant response rating, Kochia (kochia (Kochia scoparia); [19]): 100
- Plant response rating: Galium [7, 10]: 40
- Plant response rating: Galium [7, 11]: 50
- Plant response rating: Galium [7, 12]: 60
- Plant response rating: Galium [7, 13]: 70
- Plant response rating, Galium [7, 14]: 20
- Plant response rating, Galium [7, 15]: 0
- Plant response rating, Galium [7, 16]: 0
- Plant response rating, Galium [7, 18]: 20
- Plant response rating, Galium [7, 19]: 20
- Plant response rating: Speedwell [8, 10]: 75
- Plant response rating: Speedwell [8, 11]: 85
- Plant response rating: Speedwell [8, 12]: 95
- Plant response rating: Speedwell [8, 13]: 100
- Plant response rating, Speedwell [8, 14]: 25
- Plant response rating, Speedwell [8, 16]: 20
- Plant response rating, Speedwell [8, 17]: 40
- Plant response rating, Speedwell [8, 18]: 100
- Plant response rating, Speedwell [8, 19]: 100
- Plant response rating: Mustard, Wild [9, 11]: 90
- Plant response rating: Mustard, Wild [9, 13]: 100
- Plant response rating, Mustard, Wild [9, 14]: 10
- Plant response rating, Mustard, Wild [9, 15]: 0
- Plant response rating, Mustard, Wild [9, 16]: 0
- Plant response rating, Mustard, Wild [9, 17]: 100
- Plant response rating, Mustard, Wild [9, 18]: 100
- Plant response rating, Mustard, Wild [9, 19]: 100
